# From patent publication US12606572B2, “Substituted heterocycles and uses thereof” (Kumquat Biosciences Inc., priority 2023, dated 2026)
# What was measured:
# KRAS G12S = molecular target: T1, KRAS G12S (Homo sapiens, UniProt P01116, G12S); assay: HTRF assay, interaction of GST-tagged K-Ras with His-tagged hSOS1 (KRAS G12S); assay type: biochemical; conditions: <500 nM, read-out: Inhibition of KRAS G12S (IC50)
# T1 construct: made in house; host or cells: E. coli BL21 (DE3)
# Method in brief: (§1)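 GST-K-Ras (G12S or WT) with anti-GST-Eu donor mixed with His-hSOS1 and anti-6His-XL665 acceptor in ~5 mM HEPES pH 7.4, 150 mM NaCl, 1 mM DTT, 0.05% BSA, 0.0025% Igepal. After ~10 min or longer, HTRF 665/620 nm ratio read.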
# KRAS WT = molecular target: T2, KRAS WT (Homo sapiens, UniProt P01116); assay: HTRF assay, interaction of GST-tagged K-Ras with His-tagged hSOS1 (KRAS wildtype); assay type: biochemical; conditions: <500 nM, read-out: Inhibition of KRAS WT (IC50)
# T2 construct: made in house; host or cells: E. coli BL21 (DE3)
# Method in brief: as §1
# T1 sequence (P01116 1-188 isoform P01116-2 G12S): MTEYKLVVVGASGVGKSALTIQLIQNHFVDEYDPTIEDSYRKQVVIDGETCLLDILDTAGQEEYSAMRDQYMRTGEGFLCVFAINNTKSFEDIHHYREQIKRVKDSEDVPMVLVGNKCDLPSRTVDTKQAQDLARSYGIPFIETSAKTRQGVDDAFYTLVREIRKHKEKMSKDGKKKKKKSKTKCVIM
# T2 sequence (P01116 1-188 isoform P01116-2): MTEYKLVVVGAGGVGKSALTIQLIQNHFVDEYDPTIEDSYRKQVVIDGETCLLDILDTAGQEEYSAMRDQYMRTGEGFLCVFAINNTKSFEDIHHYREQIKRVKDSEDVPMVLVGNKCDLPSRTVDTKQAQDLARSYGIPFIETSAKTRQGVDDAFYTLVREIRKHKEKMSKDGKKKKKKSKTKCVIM
SMILES,IC50 (KRAS G12S) [nM],IC50 (KRAS WT) [nM]
"C[C@@H]1[C@H](N2C[C@H](C)Oc3nc(-c4ccc(F)c5sc(N)c(C#N)c45)c(F)c4nc(OC[C@@]56CCCN5C[C@H](F)C6)nc2c34)CCN1C(=O)n1cnc(Cl)n1 [Compound 461, 2-amino-4-((S)-10-((2R,3R)-1-(3-chloro-1H-1,2,4-triazole-1-carbonyl)-2-methylpyrrolidin-3-yl)-4-fluoro-2-(((2R,7aS)-2-fluorotetrahydro-1H-pyrrolizin-7a(5H)-yl)methoxy)-8-methyl-9,10-dihydro-8H-7-oxa-1,3,6,10-tetraazacyclohepta[de]naphthalen-5-yl)-7-fluorobenzo[b]thiophene-3-carbonitrile]",< 500,< 500
"C[C@@H]1CCOc2c(Cl)c(-c3ccc(F)c4sc(N)c(C#N)c34)c(F)c3nc(OC[C@@]45CCCN4C[C@H](F)C5)nc(c23)N1CC1CCN(C(=O)n2ccnc2)C1 (stereo partly drawn) [Compound 417, 4-((5R)-4-((1-(1H-imidazole-1-carbonyl)pyrrolidin-3-yl)methyl)-9-chloro-11-fluoro-2-(((2R, 7aS)-2-fluorotetrahydro-1H-pyrrolizin-7a(5H)-yl)methoxy)-5-methyl-4,5,6,7-tetrahydro-[1,5]oxazocino [4,3,2-de]quinazolin-10-yl)-2-amino-7-fluorobenzo [b]thiophene-3-carbonitrile]",< 500,< 500
"Cc1cn(C(=O)N(C)[C@@H]2C[C@@H]3CCOc4c(Cl)c(-c5ccc(F)c6sc(N)c(C#N)c56)c(F)c5nc(OC[C@@]67CCCN6C[C@H](F)C7)nc(c45)N3C2)cn1 (single isomer, unassigned) [Compound 472]",< 500,< 500
"C=CC(=O)N1CC(CN2CCOc3c(Cl)c(-c4ccc(F)c5sc(N)c(C#N)c45)c(F)c4nc(OC[C@@]56CCCN5C[C@H](F)C6)nc2c34)C1 [Compound 466, 4-(4-((1-acryloylazetidin-3-yl)methyl)-8-chloro-10-fluoro-2-(((2R,7aS)-2-fluorotetrahydro-1H-pyrrolizin-7a(5H)-yl)methoxy)-5,6-dihydro-4H-[1,4]oxazepino[5,6,7-de]quinazolin-9-yl)-2-amino-7-fluorobenzo[b]thiophene-3-carbonitrile]",< 500,< 500
"N#Cc1c(N)sc2c(F)ccc(-c3c(Cl)c4c5c(nc(OC[C@@]67CCCN6C[C@H](F)C7)nc5c3F)N(CC3CN(C(=O)/C=C/C5CC5)C3)CCO4)c12 [Compound 418, 2-amino-4-(8-chloro-4-((1-((E)-3-cyclopropylacryloyl)azetidin-3-yl)methyl)-10-fluoro-2-(((2R,7aS)-2-fluorotetrahydro-1H-pyrrolizin-7a(5H)-yl)methoxy)-5,6-dihydro-4H-[1,4]oxazepino [5,6,7-de]quinazolin-9-yl)-7-fluorobenzo[b]thiophene-3-carbonitrile]",< 500,< 500
"C[C@@H]1[C@H](N2c3nc(OC[C@@]45CCCN4C[C@H](F)C5)nc4c(F)c(-c5ccc(F)c6sc(N)c(C#N)c56)c(Cl)c(c34)OC[C@@H]2C)CCN1C(=O)n1cnc(C#N)c1 [Compound 406, 1-((2R,3R)-3-((5S)-9-(2-amino-3-cyano-7-fluorobenzo[b]thiophen-4-yl)-8-chloro-10-fluoro-2-(((2R,7aS)-2-fluorotetrahydro-1H-pyrrolizin-7a(5H)-yl)methoxy)-5-methyl-5,6-dihydro-4H-[1,4]oxazepino [5,6,7-de]quinazolin-4-yl)-2-methylpyrrolidine-1-carbonyl)-1H-imidazole-4-carbonitrile]",< 500,< 500
"N#Cc1c(N)sc2c(F)ccc(-c3c(Cl)c4c5c(nc(OC[C@@]67CCCN6C[C@H](F)C7)nc5c3F)N(CC3CN(C(=O)/C=C/C(F)F)C3)CCO4)c12 [Compound 423, 2-amino-4-(8-chloro-4-((1-((E)-4,4-difluorobut-2-enoyl)azetidin-3-yl)methyl)-10-fluoro-2-(((2R,7aS)-2-fluorotetrahydro-1H-pyrrolizin-7a (5H)-yl)methoxy)-5,6-dihydro-4H-[1,4]oxazepino[5,6,7-de]quinazolin-9-yl)-7-fluorobenzo[b]thiophene-3-carbonitrile]",< 500,< 500
"Cc1cn(C(=O)N2CC[C@@H](N3CCCc4nc(-c5ccc(F)c6sc(N)c(C#N)c56)c(F)c5nc(OC[C@@]67CCCN6C[C@H](F)C7)nc3c45)[C@H]2C)c(C)n1 [Compound 409, 2-amino-4-(10-((2R,3R)-1-(2,4-dimethyl-1H-imidazole-1-carbonyl)-2-methylpyrrolidin-3-yl)-4-fluoro-2-(((2R,7aS)-2-fluorotetrahydro-1H-pyrrolizin-7a (5H)-yl)methoxy)-7,8,9,10-tetrahydro-1,3,6,10-tetraazacyclohepta[de]naphthalen-5-yl)-7-fluorobenzo[b]thiophene-3-carbonitrile]",< 500,< 500
"CC(C)[C@@H]1[C@@H](CN2c3nc(OC[C@@]45CCCN4C[C@H](F)C5)nc4c(F)c(-c5ccc(F)c6sc(N)c(C#N)c56)c(Cl)c(c34)OC[C@@H]2[C@H](C)O)CN1C(=O)n1ccnc1 (single isomer, unassigned) [Compound 410]",< 500,< 500
"CC1C(CN2c3nc(OC[C@@]45CCCN4C[C@H](F)C5)nc4c(F)c(-c5ccc(F)c6sc(N)c(C#N)c56)c(Cl)c(c34)OC[C@@H]2[C@H](C)O)CCN1C(=O)n1ccnc1 (stereo partly drawn) [Compound 457, 4-((5R)-4-((1-(1H-imidazole-1-carbonyl)-2-methylpyrrolidin-3-yl)methyl)-8-chloro-10-fluoro-2-(((2R,7aS)-2-fluorotetrahydro-1H-pyrrolizin-7a(5H)-yl)methoxy)-5-((S)-1-hydroxyethyl)-5,6-dihydro-4H-[1,4]oxazepino[5,6,7-de]quinazolin-9-yl)-2-amino-7-fluorobenzo[b]thiophene-3-carbonitrile]",< 500,< 500
"Cc1cn(C(=O)N2CC[C@@H](N3CCCCc4nc(-c5cc(N)c(F)c(C)c5C(F)(F)F)c(F)c5nc(OC[C@@]67CCCN6C[C@H](F)C7)nc3c45)[C@H]2C)c(C)n1 [Compound 438, ((2R,3R)-3-(5-(5-amino-4-fluoro-3-methyl-2-(trifluoromethyl)phenyl)-4-fluoro-2-(((2R,7aS)-2-fluorotetrahydro-1H-pyrrolizin-7a(5H)-yl)methoxy)-7,8,9,10-tetrahydro-11H-1,3,6,11-tetraazacycloocta[de]naphthalen-11-yl)-2-methylpyrrolidin-1-yl)(2,4-dimethyl-1H-imidazol-1-yl)methanone]",< 500,< 500
"C[C@@H]1C(CN2CCOc3c(Cl)c(-c4ccc(F)c5sc(N)c(C#N)c45)c(F)c4nc(OC[C@@]56CCCN5C[C@H](F)C6)nc2c34)CN1C(=O)n1ccnc1 (stereo partly drawn) [Compound 413, 4-(4-(((2R)-1-(1H-imidazole-1-carbonyl)-2-methylazetidin-3-yl)methyl)-8-chloro-10-fluoro-2-(((2R,7aS)-2-fluorotetrahydro-1H-pyrrolizin-7a(5H)-yl)methoxy)-5,6-dihydro-4H-[1,4]oxazepino[5,6,7-de]quinazolin-9-yl)-2-amino-7-fluorobenzo[b]thiophene-3-carbonitrile]",< 500,< 500
"C[C@@H]1[C@H](N2CCOc3c(Cl)c(-c4ccc(F)c5sc(N)c(C#N)c45)c(F)c4nc(OC[C@@]56CCCN5C[C@H](F)C6)nc2c34)CCN1C(=O)n1cnc(F)n1 (single isomer, unassigned) [Compound 426]",< 500,< 500
"C[C@@H]1[C@H](N2CCOc3c(Cl)c(-c4ccc(F)c5sc(N)c(C#N)c45)c(F)c4nc(OC[C@@]56CCCN5C[C@H](F)C6)nc2c34)CCN1C(=O)n1ccnc1 (single isomer, unassigned) [Compound 474]",< 500,< 500
"C=CC(=O)N1CC[C@@H](N2CCCOc3c(Cl)c(-c4ccc(F)c5sc(N)c(C#N)c45)c(F)c4nc(OC[C@@]56CCCN5C[C@H](F)C6)nc2c34)[C@H]1C [Compound 411, 4-(4-((2R,3R)-1-acryloyl-2-methylpyrrolidin-3-yl)-9-chloro-11-fluoro-2-(((2R,7aS)-2-fluorotetrahydro-1H-pyrrolizin-7a (5H)-yl)methoxy)-4,5,6,7-tetrahydro-[1,5]oxazocino-[4,3,2-de]quinazolin-10-yl)-2-amino-7-fluorobenzo[b]thiophene-3-carbonitrile]",< 500,< 500
"C[C@H](O)[C@H]1COc2c(Cl)c(-c3ccc(F)c4sc(N)c(C#N)c34)c(F)c3nc(OC[C@@]45CCCN4C[C@H](F)C5)nc(c23)N1C[C@H]1CN(C(=O)n2ccnc2)[C@@H]1C (single isomer, unassigned) [Compound 402]",< 500,< 500
"Cc1cn(C(=O)N2CC[C@@H](N3CCOc4nc(-c5cc(N)c(F)c(C)c5C(F)(F)F)c(F)c5nc(OC[C@@]67CCCN6C[C@H](F)C7)nc3c45)[C@H]2C)c(C)n1 [Compound 487, ((2R,3R)-3-(5-(5-amino-4-fluoro-3-methyl-2-(trifluoromethyl)phenyl)-4-fluoro-2-(((2R,7aS)-2-fluorotetrahydro-1H-pyrrolizin-7a(5H)-yl)methoxy)-8,9-dihydro-10H-7-oxa-1,3,6,10-tetraazacyclohepta[de]naphthalen-10-yl)-2-methylpyrrolidin-1-yl)(2,4-dimethyl-1H-imidazol-1-yl) methanone]",< 500,< 500
"C[C@H](O)[C@H]1COc2c(Cl)c(-c3ccc(F)c4sc(N)c(C#N)c34)c(F)c3nc(OC[C@@]45CCCN4C[C@H](F)C5)nc(c23)N1C[C@@H]1CN(C(=O)n2ccnc2)[C@@H]1C (single isomer, unassigned) [Compound 446]",< 500,< 500
